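Results reflect a 48-hour exposure of cells in 96-well plates to compound at five concentrations. Abbreviation: GI50, concentration required for 50% inhibition of growth. TGI: concentration producing complete growth inhibition.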
Experiments:
Experiment in all cases: NCI tumour cell line growth inhibition, 48 h; in the data active = GI50 below about 0.43 µM; inactive = the rest
RPMI-8226 leukemia = test system: RPMI-8226 leukemia
CAKI-1 renal = test system: CAKI-1 renal
MDA-MB-435 = test system: MDA-MB-435
HT29 colon = test system: HT29 colon
ACHN renal = test system: ACHN renal
MALME-3M melanoma = test system: MALME-3M melanoma
NCI-H522 lung = test system: NCI-H522 lung
NCI/ADR-RES ovarian = test system: NCI/ADR-RES ovarian
T-47D breast = test system: T-47D breast
COLO 205 colon = test system: COLO 205 colon
SR leukemia = test system: SR leukemia
HCT-116 colon = test system: HCT-116 colon
U251 CNS = test system: U251 CNS
NCI-H226 lung = test system: NCI-H226 lung
LOX IMVI melanoma = test system: LOX IMVI melanoma
MDA-N = test system: MDA-N
K-562 leukemia = test system: K-562 leukemia
M14 melanoma = test system: M14 melanoma
UACC-257 melanoma = test system: UACC-257 melanoma
UACC-62 melanoma = test system: UACC-62 melanoma
UO-31 renal = test system: UO-31 renal
MOLT-4 leukemia = test system: MOLT-4 leukemia
HL-60(TB) leukemia = test system: HL-60(TB) leukemia
HOP-92 NSCLC = test system: HOP-92 NSCLC
SW-620 colon = test system: SW-620 colon
NCI-H23 lung = test system: NCI-H23 lung
CCRF-CEM leukemia = test system: CCRF-CEM leukemia
DU-145 prostate = test system: DU-145 prostate
OVCAR-4 ovarian = test system: OVCAR-4 ovarian
MDA-MB-231 breast = test system: MDA-MB-231 breast
MCF7 breast = test system: MCF7 breast
KM12 colon = test system: KM12 colon
SNB-75 CNS = test system: SNB-75 CNS
OVCAR-3 ovarian = test system: OVCAR-3 ovarian
SK-OV-3 ovarian = test system: SK-OV-3 ovarian
SNB-19 CNS = test system: SNB-19 CNS
RXF 393 renal = test system: RXF 393 renal
NCI-H460 lung = test system: NCI-H460 lung
SF-539 CNS = test system: SF-539 CNS
HCT-15 colon = test system: HCT-15 colon
BT-549 breast = test system: BT-549 breast
EKVX NSCLC = test system: EKVX NSCLC
TK-10 renal = test system: TK-10 renal
SK-MEL-2 melanoma = test system: SK-MEL-2 melanoma
OVCAR-5 ovarian = test system: OVCAR-5 ovarian
SK-MEL-28 melanoma = test system: SK-MEL-28 melanoma
SF-268 CNS = test system: SF-268 CNS
SN12C renal = test system: SN12C renal
HS 578T breast = test system: HS 578T breast
HCC-2998 colon = test system: HCC-2998 colon
HOP-62 NSCLC = test system: HOP-62 NSCLC
A498 renal = test system: A498 renal

CC1(C#N)N(C(=O)c2ccccc2)c2ccccc2N1C(=O)c1ccccc1
98.4 µM: TGI (M14 melanoma)
inactive: GI50 (RPMI-8226 leukemia) 39.8 µM | GI50 (CAKI-1 renal) 65 µM | GI50 (MDA-MB-435) 62.9 µM | GI50 (HT29 colon) 66.4 µM | GI50 (ACHN renal) 72.9 µM | GI50 (MALME-3M melanoma) 44.6 µM | GI50 (NCI-H522 lung) 49.4 µM | GI50 (NCI/ADR-RES ovarian) 79.7 µM | GI50 (T-47D breast) 38.7 µM | GI50 (COLO 205 colon) 46.5 µM | GI50 (SR leukemia) 45.4 µM | GI50 (HCT-116 colon) 35.4 µM | GI50 (U251 CNS) 15.3 µM | GI50 (NCI-H226 lung) 91.8 µM | GI50 (LOX IMVI melanoma) 33.6 µM | GI50 (MDA-N) 79.4 µM | GI50 (K-562 leukemia) 33 µM | GI50 (M14 melanoma) 29.3 µM | GI50 (UACC-257 melanoma) 86.4 µM | GI50 (UACC-62 melanoma) 79.7 µM | GI50 (UO-31 renal) 45.1 µM | GI50 (MOLT-4 leukemia) 22.9 µM | GI50 (HL-60(TB) leukemia) 69.9 µM | GI50 (HOP-92 NSCLC) 52 µM | GI50 (SW-620 colon) 75.9 µM | GI50 (NCI-H23 lung) 64.4 µM | GI50 (CCRF-CEM leukemia) 23.9 µM | GI50 (DU-145 prostate) 81.8 µM | GI50 (OVCAR-4 ovarian) 57.7 µM | GI50 (MDA-MB-231 breast) 65.3 µM | GI50 (MCF7 breast) 37.2 µM
71.9 µM: TGI (MOLT-4 leukemia)
77.9 µM: TGI (CCRF-CEM leukemia)

CCOC(=O)NC(Nc1ncccn1)(C(F)(F)F)C(F)(F)F
> 100 µM: TGI (KM12 colon) | TGI (RPMI-8226 leukemia) | TGI (SNB-75 CNS) | TGI (OVCAR-3 ovarian) | TGI (MDA-MB-435) | TGI (HT29 colon) | TGI (ACHN renal) | TGI (MALME-3M melanoma) | TGI (SK-OV-3 ovarian) | TGI (NCI-H522 lung) | TGI (SNB-19 CNS) | TGI (T-47D breast) | TGI (RXF 393 renal) | TGI (SR leukemia) | TGI (NCI-H460 lung) | TGI (HCT-116 colon) | TGI (SF-539 CNS) | TGI (U251 CNS) | TGI (HCT-15 colon) | TGI (NCI-H226 lung) | TGI (LOX IMVI melanoma) | TGI (MDA-N) | TGI (K-562 leukemia) | TGI (BT-549 breast) | TGI (EKVX NSCLC) | TGI (M14 melanoma) | TGI (TK-10 renal) | TGI (UACC-257 melanoma) | TGI (SK-MEL-2 melanoma) | TGI (UACC-62 melanoma) | TGI (OVCAR-5 ovarian) | TGI (SK-MEL-28 melanoma) | TGI (UO-31 renal) | TGI (MOLT-4 leukemia) | TGI (HL-60(TB) leukemia) | TGI (SF-268 CNS) | TGI (NCI-H23 lung) | TGI (SN12C renal) | TGI (CCRF-CEM leukemia) | TGI (HS 578T breast) | TGI (DU-145 prostate) | TGI (HCC-2998 colon) | TGI (HOP-62 NSCLC) | TGI (MDA-MB-231 breast) | TGI (MCF7 breast) | TGI (A498 renal)
